Experimental data published in US10294202B2, “Pyrrolidinones as herbicides” (FMC Corporation, priority 2013, dated 2019).

Legend:
[1] = tested on: ryegrass, Italian; experiment: Test A pre-/postemergence herbicide test; type: in vivo, Lolium multiflorum
Outline: (§1)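 Approximately 10 days after treatment in the greenhouse, plants were compared with untreated controls and given a 0–100 visual injury rating. Applications: preemergence directed soil spray; postemergence on 2–10 cm plants at the one- to two-leaf stage.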

[2] = tested on: kochia; experiment: Test A pre-/postemergence herbicide test; type: in vivo, Kochia scoparia
Outline: as §1

[3] = tested on: wheat; experiment: Test A pre-/postemergence herbicide test; type: in vivo, Triticum aestivum; conditions: Postemergence
Outline: as §1

[4] = tested on: sedge, umbrella; experiment: Test B flooded paddy test; type: in vivo, Cyperus difformis; conditions: 500 g ai/ha, Flood; scale of 0 to 100 where 0 is no effect and 100 is complete control
Outline: (§2)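 Scoring: visual, compared with untreated controls, 0 = no effect through 100 = complete control, taken 13 to 15 days after treatment in the greenhouse. Compounds had been added to paddy water over soil flooded 3 cm deep at the plants' 2-leaf stage.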

[5] = tested on: corn; experiment: Test A pre-/postemergence herbicide test; type: in vivo, Zea mays; conditions: Postemergence
Outline: as §1

[6] = tested on: barnyardgrass; experiment: Test A pre-/postemergence herbicide test; type: in vivo, Echinochloa crus-galli
Outline: as §1

[7] = tested on: blackgrass; experiment: Test A postemergence herbicide test; type: in vivo, Alopecurus myosuroides
Outline: (§3)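 Plants at the one- to two-leaf stage, 2–10 cm tall, grown in loam/sand pots, received postemergence sprays of the test chemicals. After about 10 days in the greenhouse, injury was scored visually against untreated controls on a 0–100 scale (0 none, 100 complete control).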

[8] = tested on: giant foxtail; experiment: Test A pre-/postemergence herbicide test; type: in vivo, Setaria faberii
Outline: as §1

[9] = tested on: ragweed; experiment: Test A pre-/postemergence herbicide test; type: in vivo, Ambrosia elatior
Outline: as §1

[10] = tested on: pigweed; experiment: Test A pre-/postemergence herbicide test; type: in vivo, Amaranthus retroflexus
Outline: as §1

[11] = tested on: barnyardgrass; experiment: Test B flooded paddy test; type: in vivo, Echinochloa crus-galli; conditions: 500 g ai/ha, Flood; scale of 0 to 100 where 0 is no effect and 100 is complete control
Outline: as §2

[12] = tested on: galium; experiment: Test A postemergence herbicide test; type: in vivo, Galium aparine
Outline: as §3

[13] = tested on: ducksalad; experiment: Test B flooded paddy test; type: in vivo, Heteranthera limosa; conditions: 500 g ai/ha, Flood; scale of 0 to 100 where 0 is no effect and 100 is complete control
Outline: as §2

[14] = tested on: rice; experiment: Test B flooded paddy test; type: in vivo, Oryza sativa; conditions: 500 g ai/ha, Flood; scale of 0 to 100 where 0 is no effect and 100 is complete control
Outline: as §2

[15] = Postemergence, 125 g ai/ha, visual rating on 0 to 100 scale (0 no effect, 100 complete control), approx. 10 days
[16] = Postemergence, 500 g ai/ha, 0 to 100 scale (0 no effect, 100 complete control)
[17] = Preemergence, 125 g ai/ha, 0 to 100 scale where 0 is no effect and 100 is complete control
[18] = preemergence, 500 g ai/ha, 0 to 100 scale, 0 is no effect and 100 is complete control
[19] = Postemergence, 125 g ai/ha, 0 to 100 scale, 0 is no effect, 100 is complete control
[20] = 500 g ai/ha, 0 to 100 scale (0 no effect, 100 complete control)
[21] = 125 g ai/ha, 0 to 100 scale, 0 is no effect, 100 is complete control
[22] = 125 g ai/ha, visual rating, 0 to 100 scale, 0 no effect, 100 complete control, approximately 10 days, preemergence

SMILES	Plant response rating, Ryegrass, Italian [1, 18]	Plant response rating, Kochia [2, 19]	Plant response rating, Kochia [2, 18]	Plant response rating, Sedge, Umbrella [4]	Plant response rating, Corn [5, 21]	Plant response rating, Barnyardgrass [6, 19]	Plant response rating, Barnyardgrass [6, 18]	Plant response rating, Blackgrass [7, 21]	Plant response rating, Foxtail, Giant [8, 19]	Plant response rating, Foxtail, Giant [8, 18]	Plant response rating, Ragweed [9, 18]	Plant response rating, Pigweed [10, 18]	Plant response rating, Barnyardgrass [11]	Plant response rating, Galium [12, 21]	Plant response rating, Ducksalad [13]	Plant response rating, Rice [14]	Plant response rating, Ryegrass, Italian [1, 22]	Plant response rating, Ryegrass, Italian [1, 19]	Ryegrass, Italian plant response rating (0 to 100 scale, 0 is no effect, 100 is complete control) ([1]; Postemergence, 500 g ai/ha)	Plant response rating, Kochia [2, 22]	further results
O=C1NCC(c2cc3ccccc3o2)C1C(=O)Nc1ccccc1F (racemic) [Compound 281]	0	0	0	0	0	40	70	0	0	70	0	0	20	0	75	0					Plant response rating, Ryegrass, Italian [1, 15]: 0; Plant response rating, Ryegrass, Italian [1, 16]: 0; Plant response rating, Ryegrass, Italian [1, 17]: 0; Plant response rating, Kochia [2, 16]: 0; Plant response rating, Kochia [2, 17]: 0; Plant response rating, Wheat ([3]; 125 g ai/ha, visual rating on 0 to 100 scale (0 no effect, 100 complete control), approx. 10 days): 0; Plant response rating, Wheat [3, 20]: 0; Plant response rating, Corn [5, 20]: 0; Plant response rating, Barnyardgrass [6, 16]: 70; Plant response rating, Barnyardgrass [6, 17]: 50; Plant response rating, Blackgrass [7, 20]: 0; Plant response rating, Foxtail, Giant [8, 16]: 0; Plant response rating, Foxtail, Giant [8, 17]: 10; Plant response rating, Ragweed [9, 15]: 0; Plant response rating, Ragweed [9, 16]: 0; Plant response rating, Ragweed [9, 17]: 0; Plant response rating, Pigweed [10, 15]: 0; Plant response rating, Pigweed [10, 16]: 0; Plant response rating, Pigweed [10, 17]: 0; Plant response rating, Galium [12, 20]: 0
CON(C(=O)C1C(=O)NCC1c1ccc(F)c(F)c1)c1cc([N+](=O)[O-])ccc1F (stereo not drawn) [Compound 175]	0	0	0	0	0	0	0	0	0	0	0	0	0	0	30	0	0	0	0	0	Kochia plant response rating (0 to 100 scale, 0 is no effect, 100 is complete control) ([2]; Postemergence, 500 g ai/ha): 0; Plant response rating, Wheat [3, 21]: 0; Wheat plant response rating (0 to 100 scale, 0 is no effect, 100 is complete control) ([3]; 500 g ai/ha): 0; Corn plant response rating (0 to 100 scale, 0 is no effect, 100 is complete control) ([5]; 500 g ai/ha): 0; Plant response rating, Barnyardgrass [6, 22]: 0; Barnyardgrass plant response rating (0 to 100 scale, 0 is no effect, 100 is complete control) ([6]; Postemergence, 500 g ai/ha): 0; Blackgrass plant response rating (0 to 100 scale, 0 is no effect, 100 is complete control) ([7]; 500 g ai/ha): 0; Plant response rating, Foxtail, Giant [8, 22]: 0; Foxtail, Giant plant response rating (0 to 100 scale, 0 is no effect, 100 is complete control) ([8]; Postemergence, 500 g ai/ha): 0; Plant response rating, Ragweed [9, 22]: 0; Plant response rating, Ragweed [9, 19]: 0; Ragweed plant response rating (0 to 100 scale, 0 is no effect, 100 is complete control) ([9]; Postemergence, 500 g ai/ha): 0; Plant response rating, Pigweed [10, 22]: 0; Plant response rating, Pigweed [10, 19]: 0; Pigweed plant response rating (0 to 100 scale, 0 is no effect, 100 is complete control) ([10]; Postemergence, 500 g ai/ha): 0; Galium plant response rating (0 to 100 scale, 0 is no effect, 100 is complete control) ([12]; 500 g ai/ha): 0
O=C1NCC(c2ccc(Cl)cc2)C1C(=O)Nc1ccccc1F (stereo not drawn) [Compound 217]	60	20	70	0	20	70	90	20	80	90	50	40	40	30	100	0	40	0	30	30	Kochia plant response rating (0 to 100 scale, 0 is no effect, 100 is complete control) ([2]; Postemergence, 500 g ai/ha): 70; Plant response rating, Wheat [3, 21]: 20; Wheat plant response rating (0 to 100 scale, 0 is no effect, 100 is complete control) ([3]; 500 g ai/ha): 30; Corn plant response rating (0 to 100 scale, 0 is no effect, 100 is complete control) ([5]; 500 g ai/ha): 30; Plant response rating, Barnyardgrass [6, 22]: 70; Barnyardgrass plant response rating (0 to 100 scale, 0 is no effect, 100 is complete control) ([6]; Postemergence, 500 g ai/ha): 90; Blackgrass plant response rating (0 to 100 scale, 0 is no effect, 100 is complete control) ([7]; 500 g ai/ha): 50; Plant response rating, Foxtail, Giant [8, 22]: 90; Foxtail, Giant plant response rating (0 to 100 scale, 0 is no effect, 100 is complete control) ([8]; Postemergence, 500 g ai/ha): 90; Plant response rating, Ragweed [9, 22]: 0; Plant response rating, Ragweed [9, 19]: 0; Ragweed plant response rating (0 to 100 scale, 0 is no effect, 100 is complete control) ([9]; Postemergence, 500 g ai/ha): 30; Plant response rating, Pigweed [10, 22]: 20; Plant response rating, Pigweed [10, 19]: 0; Pigweed plant response rating (0 to 100 scale, 0 is no effect, 100 is complete control) ([10]; Postemergence, 500 g ai/ha): 0; Galium plant response rating (0 to 100 scale, 0 is no effect, 100 is complete control) ([12]; 500 g ai/ha): 50
